Results: patent US20200361871A1 (Enterprise Therapeutics Ltd., priority 2018, published 2020)

Target: human TMEM16A (TMEM16Aabc variant) (Homo sapiens, UniProt Q5XXA6, DEL476-501, form not given)
Assay: Automated whole-cell patch clamp (Qpatch) TMEM16A potentiator assay in FRT cells stably expressing human TMEM16A
Type: cell-based
Details: for % Potentiation @ 3.33 μM Avg: 3.33 μM solution of test compound, percentage increase of baseline TMEM16A current; for EC50: calculated EC50, Qpatch TMEM16A current at +70 mV
How it was run: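 FRT cells stably expressing human TMEM16Aabc were recorded by automated whole-cell patch clamp, with intracellular Ca2+ buffered for ~EC20 activation, holding −70 mV and step to +70 mV at 0.05 Hz. Compound was applied cumulatively, 5 min per concentration. Peak current increase as % of baseline was fitted to give EC50 and maximum efficacy.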

human TMEM16A (TMEM16Aabc variant), sequence (Q5XXA6 with tags, fused parts or gaps DEL476-501): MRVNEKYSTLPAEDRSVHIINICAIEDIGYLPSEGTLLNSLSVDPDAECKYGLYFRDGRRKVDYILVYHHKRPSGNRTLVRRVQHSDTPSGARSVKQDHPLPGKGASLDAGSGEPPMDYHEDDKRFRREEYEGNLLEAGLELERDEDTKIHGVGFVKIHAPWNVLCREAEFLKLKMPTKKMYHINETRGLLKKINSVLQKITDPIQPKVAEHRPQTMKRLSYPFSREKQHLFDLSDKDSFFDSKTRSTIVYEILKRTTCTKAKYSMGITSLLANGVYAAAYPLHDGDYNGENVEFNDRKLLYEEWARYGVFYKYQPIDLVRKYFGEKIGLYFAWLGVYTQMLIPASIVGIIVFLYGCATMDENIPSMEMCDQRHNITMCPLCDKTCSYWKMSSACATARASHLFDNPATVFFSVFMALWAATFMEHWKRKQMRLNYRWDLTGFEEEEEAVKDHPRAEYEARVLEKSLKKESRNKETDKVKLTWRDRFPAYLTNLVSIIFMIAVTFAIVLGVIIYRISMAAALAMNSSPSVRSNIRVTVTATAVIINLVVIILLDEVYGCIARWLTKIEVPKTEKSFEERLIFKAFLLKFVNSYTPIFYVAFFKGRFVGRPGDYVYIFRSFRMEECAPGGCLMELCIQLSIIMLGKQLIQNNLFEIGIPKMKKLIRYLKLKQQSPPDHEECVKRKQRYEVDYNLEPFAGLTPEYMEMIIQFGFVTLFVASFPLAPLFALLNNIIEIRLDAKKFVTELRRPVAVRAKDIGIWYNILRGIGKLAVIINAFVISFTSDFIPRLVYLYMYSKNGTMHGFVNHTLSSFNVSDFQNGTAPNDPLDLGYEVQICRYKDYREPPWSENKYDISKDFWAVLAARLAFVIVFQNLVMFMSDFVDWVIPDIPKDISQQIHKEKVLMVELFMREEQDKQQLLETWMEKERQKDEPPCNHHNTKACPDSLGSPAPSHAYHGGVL

Compound	% Potentiation @ 3.33 μM Avg	EC50
CC(C)(C)NC(=O)c1cc(NC(=O)Cc2cc(F)ccc2Cl)ccn1 [Example 40.1, N-tert-Butyl-4-[[2-(2-chloro-5-fluoro-phenyl)acetyl]amino] pyridine-2-carboxamide]	91%	870 nM
O=C(Cc1ccccc1F)Nc1ccnc(C(=O)NC23CCC(F)(C2)C3)c1 [Example 60, N-(4-Fluoro-1-bicyclo[2.1.1]hexanyl)-4-[[2-(2-fluorophenyl)acetyl]amino]pyridine-2-carboxamide]	126%	350 nM
CC(C)(C#N)NC(=O)c1cc(NC(=O)c2cnc(C3CC3)nc2)ccn1 [Example 83.8, N-[2-[(1-Cyano-1-methyl-ethyl)carbamoyl]-4-pyridyl]-2-cyclopropyl-pyrimidine-5-carboxamide]	35%	
CC(C)(C#N)NC(=O)c1cc(NC(=O)C2CCCCC2)ccn1 [Example 83.2, N-(1-Cyano-1-methyl-ethyl)-4-(cyclohexanecarbonylamino)pyridine-2-carboxamide]	41%	
COCCC(C)(C)NC(=O)c1cc(NC(=O)Cc2cc(Cl)ccc2O)ccn1 [Example 1.4, 4-[[2-(5-Chloro-2-hydroxy-phenyl)acetyl]amino]-N-(3-methoxy-1,1-dimethyl-propyl)pyridine-2-carboxamide]	195%	400 nM
CC(C)(C#N)NC(=O)c1cc(NC(=O)CC2CCCCC2)ccn1 [Example 83.1, N-(1-Cyano-1-methyl-ethyl)-4-[(2-cyclohexylacetyl)amino]pyridine-2-carboxamide]	159%	
COc1ccc(CC(=O)Nc2cccc(C(=O)NC(C)(C)C)c2)c(O)c1 [Example 2.14, N-tert-Butyl-3-[[2-(2-hydroxy-4-methoxy-phenyl)acetyl]amino]benzamide]	100%	1780 nM
CC(C)(C)c1ccc(O)c(CC(=O)Nc2ccnc(C(=O)NC34CC(C3)C4)c2)c1 [Example 25, N-(3-Bicyclo[1.1.1]pentanyl)-4-[[2-(5-tert-butyl-2-hydroxy-phenyl)acetyl]amino] pyridine-2-carboxamide]	330%	370 nM
C#CC(C)(C)NC(=O)c1cc(NC(=O)Cc2ccc(C(F)(F)F)cc2O)ccn1 [Example 78.1, N-(1,1-Dimethylprop-2-ynyl)-4-[[2-[2-hydroxy-4-(trifluoromethyl)phenyl]acetyl]amino]pyridine-2-carboxamide]	238%	50 nM
CC(C)(C#N)NC(=O)c1cc(NC(=O)C2CCC(F)(F)C2)ccn1 (stereo not shown) [Example 83.3, N-(1-Cyano-1-methyl-ethyl)-4-[(3,3-difluorocyclopentanecarbonyl)amino]pyridine-2-carboxamide]	16%	
CC(C)NC(=O)c1cc(NC(=O)Cc2cc(Cl)ccc2O)ccn1 [Example 7.7, 4-[[2-(5-Chloro-2-hydroxy-phenyl)acetyl]amino]-N-isopropyl-pyridine-2-carboxamide]	234%	130 nM
CC(C)(C)NC(=O)c1cc(NC(=O)Cc2cccc(O)c2Cl)ccn1 [Example 3.15b, N-tert-Butyl-4-[[2-(2-chloro-3-hydroxy-phenyl)acetyl]amino]pyridine-2-carboxamide]	127%	
O=C(Cc1cc(Cl)ccc1O)Nc1ccnc(C(=O)N[C@H]2CCCC[C@@H]2O)c1 [Example 31.3, 4-[2-(5-Chloro-2-hydroxyphenyl)acetamido]-N-[(1s,2s)-2-hydroxycyclohexyl] pyridine-2-carboxamide]	205%	210 nM
CC(C)(C)NC(=O)c1cc(NC(=O)NCCc2ccccc2)ccn1 [Example 64.2, N-tert-Butyl-4-(2-phenylethylcarbamoylamino)pyridine-2-carboxamide]	61%	
COc1ccc(O)c(CC(=O)Nc2ccnc(C(=O)NC(C)(C)C)c2)c1 [Example 3.8b, N-tert-Butyl-4-[[2-(2-hydroxy-5-methoxy-phenyl)acetyl]amino]pyridine-2-carboxamide]	203%	300 nM
O=C(Cc1cc(Cl)ccc1O)Nc1ccnc(C(=O)N[C@@]2(CO)CCOC2)c1 (single isomer, unassigned) [Example 35a, 4-[[2-(5-Chloro-2-hydroxy-phenyl)acetyl]amino]-N-[(3R)-3-(hydroxymethyl)tetrahydrofuran-3-yl]pyridine-2-carboxamide or 4-[[2-(5-chloro-2-hydroxy-phenyl)acetyl]amino]-N-[(3S)-3-(hydroxymethyl)tetrahydrofuran-3-yl]pyridine-2-carboxamide]	137%	100 nM
CC(C)(C#N)NC(=O)c1cc(NC(=O)CC2CCC(F)(F)CC2)ccn1 [Example 83.10, N-(1-Cyano-1-methyl-ethyl)-4-[[2-(4,4-difluorocyclohexyl)acetyl]amino]pyridine-2-carboxamide]	62%	
COc1ccc(COc2ccc(Cl)cc2CC(=O)Nc2ccnc(C(=O)NC(C)(C)C)c2)cc1 [Example 56, N-tert-Butyl-4-[[2-[5-chloro-2-[(4-methoxyphenyl)methoxy]phenyl]acetyl]amino]pyridine-2-carboxamide]	76%	
CC(C)(C)NC(=O)c1cc(NC(=O)Cc2cccnc2Cl)ccn1 [Example 5.16, N-tert-Butyl-4-[[2-(2-chloro-3-pyridyl)acetyl]amino]pyridine-2-carboxamide]	110%	
N#CC1(NC(=O)c2cc(NC(=O)Cc3cc(Cl)ccc3O)ccn2)COC1 [Example 47.3, 4-[[2-(5-Chloro-2-hydroxy-phenyl)acetyl]amino]-N-(3-cyanooxetan-3-yl)pyridine-2-carboxamide]	237%	350 nM
CC(C)(C)NC(=O)CC(C)(C)NC(=O)c1cc(NC(=O)Cc2cc(Cl)ccc2O)ccn1 [Example 49, N-[3-(tert-Butylamino)-1,1-dimethyl-3-oxo-propyl]-4-[[2-(5-chloro-2-hydroxy-phenyl)acetyl]amino]pyridine-2-carboxamide]	226%	680 nM
O=C(Cc1cc(Cl)ccc1O)Nc1ccnc(C(=O)NC(CO)c2ccccn2)c1 (stereo not shown) [Example 35.11, 4-[[2-(5-Chloro-2-hydroxy-phenyl)acetyl]amino]-N-[2-hydroxy-1-(2-pyridyl)ethyl] pyridine-2-carboxamide]	107%	
O=C(Cc1cc(Cl)ccc1O)Nc1ccnc(C(=O)NCc2ccccc2O)c1 [Example 32.5, 4-[[2-(5-Chloro-2-hydroxy-phenyl)acetyl]amino]-N-[(2-hydroxyphenyl)methyl]pyridine-2-carboxamide]	177%	590 nM
O=C(Cc1cc(Cl)ccc1O)Nc1cccc(C(=O)NC23CC4CC(CC(C4)C2)C3)c1 [Example 1.2, N-(1-Adamantyl)-3-[[2-(5-chloro-2-hydroxy-phenyl)acetyl]amino]benzamide]	170%	540 nM
CC(C)(C#N)NC(=O)c1cc(NC(=O)Cc2cc(Cl)ccc2O)ccn1 [Example 34, 4-[[2-(5-Chloro-2-hydroxy-phenyl)acetyl]amino]-N-(1-cyano-1-methyl-ethyl)pyridine-2-carboxamide]	245%	90 nM
